We go through 87 compounds from a melting point compilation (Tetko et al.; mined from patent text by program, amines drawn as free bases though some values may be those of a salt).

In general, melting point refers to the temperature of the solid-liquid transition. `CC(=O)Nc1nc(N)nc(-c2ccc(Oc3ccccc3)cc2)n1` had a melting point above 260 °C.

As to `NC1([C@@H]2CCN(c3cc4c(cc3F)c(=O)c(C(=O)O)cn4[C@@H]3C[C@@H]3F)C2)CC1`, the melting point was 240 to 242 °C. Take `N#CCCCc1ccccc1CC1C(=O)CCCC1=O`: the melting point stood at 143 °C. The same measure for `CC(NC(=O)Cc1cc(F)cc(F)c1)C(=O)C1(N)N=C(c2ccccc2F)c2ccccc2N(C)C1=O` (configuration not stated): 185 to 188 °C; for `N#Cc1nc(C=Cc2cnn(-c3c(Cl)cc(C(F)(F)F)cc3Cl)n2)[nH]c1C#N`: 111 to 112 °C; for `O=C(NC(=O)c1c(F)cccc1F)Nc1ccc2c(c1)SC(c1ccc(Cl)cc1Cl)O2` (configuration not stated): 206 to 208 °C. Turning to `NCCNCCCNCCN1C(=O)c2cccc3cc4ccccc4c(c23)C1=O`, the melting point came to 150 °C.

With `C=CCSC1=C(C(=O)OCc2ccc([N+](=O)[O-])cc2)N2C(=O)[C@@H]([C@H](C)O)[C@H]2C1`, the melting point lay in the range of 137 to 139 °C. The same measure for `CN1CCN(c2ncc(-c3ccccc3)c(C(=O)N(C)Cc3cc(C(F)(F)F)cc(C(F)(F)F)c3)n2)CC1`: 162 to 163 °C; for `Cc1ccc2c(c1)c1c(n2Cc2ccc(F)cc2)CCCC1=O`: 210 °C. Next, `CC(=O)NC[C@H]1CN(c2ccc(-n3nccc3-c3ccncc3)c(F)c2)C(=O)O1`: 74.5 to 76.3 °C.

`CCOC(=O)Cn1c(-c2ccc(C(F)(F)F)cc2)nc2cccnc21` came in with a melting point of 147 to 148 °C. The same measure for `CN(C(=O)c1ccco1)c1cccc(-c2nc(=O)c3ccccc3s2)n1`: 186 to 187 °C. `O=C(O[C@@H]1CC[C@@H](c2cccc(F)c2F)Cc2ccc(Cl)nc21)N1CCC(n2c(=O)[nH]c3ncccc32)CC1`: the melting point amounted to 248 °C. The same measure for `CN1CCOC2c3cccc4[nH]cc(c34)CC21` (configuration not stated): 175 to 177 °C. `O=C(NO)c1ccc(-c2ccc3nnn(Cc4ccc5ncccc5c4)c3n2)cc1F` showed a melting point of 180 to 182 °C. `COc1cc(N)c(Cl)cc1C(=O)N[C@H]1CCN(C2CCC3(CC2)OCC(C)(C)CO3)C[C@H]1OC` (relative stereo): the melting point came to 188 °C. The same measure for `CC(C)c1noc(-c2ccccc2)c1-c1ccc(S(N)(=O)=O)cc1`: 205 °C; for `CC(=O)c1ccc(-c2ccc(F)cc2)c(N)c1`: 88 to 91 °C.

On to `O=C(O)CCCc1cc2cc(Cl)ccc2n1S(=O)(=O)c1cccc2ccccc12`, for which the melting point is 206 to 210 °C. The same measure for `Fc1cncc(-n2ccc(Cl)n2)c1`: 77 to 82 °C; for `C=CCNC(=Nc1ccc(-c2c[nH]cn2)cc1)S(=O)(=O)O`: 183 to 184 °C. On to `OC1c2ccc(F)cc2SC1Cn1ccnc1` (configuration not stated), for which the melting point is 165 to 166 °C. The same measure for `COC1C2=C3C(=CN1OC)OCCC3CC(CCC#N)C2` (configuration not stated): 105 to 107 °C; for `O=S(=O)(Nc1ncnc(Cl)c1-c1ccc(OCc2ccccc2)cc1)c1ccc(Cl)cc1`: 234 to 236 °C. `O=C1C=C(NC(=O)C(=O)c2cn(Cc3ccc4ccccc4c3)c3ccccc23)CO1` came in with a melting point of 283 to 285 °C. On to `O=C(/C=C/[C@@H]1[C@H]2CC(=O)O[C@H]2C[C@H]1OC(=O)c1ccccc1)COc1ccccc1`, for which the melting point was 132 °C. The same measure for `Oc1nc(Cl)n(CCOc2ccccc2)n1`: 166 °C; for `CCC(NCC(F)(F)F)c1ccc(Cl)c2nc3n(c12)CCCN3c1ccc(Cl)cc1Cl` (configuration not stated): 133 to 135 °C; for `NNC1=Nc2sc(Cl)cc2C(c2ccccc2)=NC1`: 204 to 207 °C. Take `CCc1c(-c2ccc(O)cc2)c2c(COC)cc3cccc1n32`: the melting point is above 130 °C. The same measure for `CCn1c(=O)c2ccc(C(=O)O)cc2n(Cc2ccc(Cl)cc2Cl)c1=O`: 238 to 240 °C; for `CC(=NC(C)c1ccc(Cl)cc1Cl)c1ccc(Cl)cc1Cl` (configuration not stated): 77 to 85 °C; for `O=C1COCC2=C1C(c1ccc(F)c(Br)c1)C1=C(COC1=O)N2` (configuration not stated): 166 to 168 °C. The same measure for `Cc1c(C)c(N2CCN(c3ccc(C(C)C)cc3)CC2)c(C)c2c1OC(C)(CO)C2` (configuration not stated): 160 to 163 °C. The compound `O=C1N(C2CCCCC2)CC(CO)C1(c1ccccc1)c1ccccc1` (configuration not stated) had a melting point of 148 to 150 °C. In turn, `CS(=O)(=O)c1nc(Cl)c(-c2c(F)cc(F)cc2F)c(N2CCCO2)n1` yielded a melting point of 210 to 219 °C. The same measure for `OC1(c2ccoc2)CN2CCC1CC2` (configuration not stated): 130 to 133 °C.

Regarding `C#Cc1cn(C2CC(OC(C)=O)C(COC(C)=O)O2)c(=O)[nH]c1=O` (configuration not stated), the melting point fell in the range of 152 to 154 °C. In turn, `COc1ccc(C2(C34CC5CC(CC(C5)C3)C4)N=C(N)N(C)C2=O)cc1` (configuration not stated) yielded a melting point of 150 to 155 °C. The same measure for `Cc1c(-c2ccc(OCc3ccccc3)cc2)[nH]c2ccc(OCc3ccccc3)cc12`: 149 to 150 °C; for `CC#CCOc1ccc(OCC(=O)NO)cc1`: 100 to 105 °C. Next, `O=C(Nc1ccc(F)cc1F)c1ccccn1`: 90.5 to 95 °C; `CC(C)n1nc(-c2cnc(N)nc2-c2cccc(F)c2)ccc1=O`: 220 to 222 °C. With `COC(=O)Cc1ccc(CNC(=O)C2Cc3ccccc3N2S(=O)(=O)c2ccc(-c3cccc(C(F)(F)F)c3)cc2)c(F)c1` (configuration not stated), the melting point lay within 50 to 57 °C. Next, `[O-][N+]1=C(c2ccccc2F)c2cc(Cl)ccc2-n2cnc(N3CCOCC3)c2C1`: 200 to 203 °C; `O=C(O)COc1ccc(SCc2cc(-c3ccccc3Cl)on2)c2c1CCC2`: 161 to 162 °C. The compound `CCOc1cc(OCC)cc(-c2cncn2-c2ccc(S(C)(=O)=O)cc2)c1` came in with a melting point of 100 to 101 °C.

Regarding `O=C(Cl)c1ccc2ccccc2c1O`, the melting point was in the range of 87 to 88 °C. The same measure for `CCOC(=O)c1c(CN(CC)CC)nc2sc(C)c(C)c2c1-c1ccc(Cl)cc1`: 98 to 100 °C; for `CC(C)Nc1ncnc2c1ncn2Cc1c(Cl)cccc1Cl`: 109 to 110 °C. Regarding `OC(CCN1CC=C(c2ccccc2)CC1)c1ccc(Cl)cc1Cl` (configuration not stated), the melting point lay within 103 to 104 °C.

Regarding `CCOC(=O)c1csnc1-c1cccc([N+](=O)[O-])c1`, the melting point lay in the range of 132 to 136 °C. `CC(C)(C)C(=O)OCCCCCCOc1ccc(Nc2ccccc2)cc1` registered a melting point of 64 to 65 °C. The same measure for `CCOC(=O)c1cn(Cc2ccc(Oc3ccccc3)cc2)nc1OCc1ccc(OCc2nc(-c3ccccc3)oc2C)c(OC)c1`: 127 to 128 °C; for `NC(=O)c1cc(CO)ccc1[N+](=O)[O-]`: 143 to 145 °C. In the case of `CCCCCCCCCc1ccc(O)c(C=NO)c1`, the melting point was determined as 170 °C.

With `CCc1nc2c(cnn2CC)c(NC2CCOCC2)c1CNC(=O)c1cccc(C(=O)NCc2cc(Cl)cc(-c3cccc(CN4CC(C)NC(C)C4)c3)c2)c1` (configuration not stated), the melting point fell in the range of 112 to 114 °C. The same measure for `COc1cc(O)c(C(=O)C=Cc2ccc(Cl)cc2)c(OC)c1`: 167 °C; for `CC(C)(C)C(=O)c1ccc(CSCc2ccc(C(=O)C(C)(C)C)cc2)cc1`: 64 to 65 °C; for `NC(=O)c1cc(Cl)c(F)c(Cl)c1F`: 145 to 147 °C. The same measure for `Cc1oc(-c2ccccc2)nc1COc1ccccc1COc1ccc(CC(=O)O)cc1`: 173 to 174 °C; for `CC(=O)[C@H]1CC=C(C)C(=O)C1`: 35 °C; for `Cc1ccc(C(=O)c2cccc3c2CCC3C(=O)O)cc1` (configuration not stated): 128 to 131 °C. The compound `OC1(c2cncnc2)CN2CCC1CC2` (configuration not stated) gave a melting point of 126 to 127 °C. On to `O=C(Nc1ccc2cc(CN3CCCC3)cnc2c1F)c1ccc(-c2ccc(Cl)cc2)cc1F`, for which the melting point turned out to be 208 °C.

Compound `Cc1cc(-c2ccccc2)n(-c2ccc(C(=O)O)cc2)n1` showed a melting point of 159 to 162 °C. In turn, `CN(Cc1ccc(F)cc1)C1CCN(c2ccc(C#N)cc2)CC1` came in with a melting point of 100 to 101 °C. `O=c1c2cc3ccccc3cc2nc(CSc2ncnc3[nH]cnc23)n1-c1ccccc1Cl`: the melting point lay within 248 to 254 °C. Next, `FC(F)(F)CNC1=NN(c2ccc(Cl)c(Cl)c2)CC1`: 93 to 94 °C; `Cc1cccc(C)c1CNc1cc(C(=O)N(C)C)cc2c1nc(C)n2COCc1ccccc1`: 55 to 56 °C; `CCOC(=O)/C(=N\OC(C)(C)C)c1csc(N)n1`: 111 to 112 °C.

In the case of `CC(=O)c1ccc(S(=O)(=O)Nc2nccs2)cc1`, the melting point fell in the range of 194 to 195 °C. `CCCCN1CCC(O)(c2cccc(C(F)(F)F)c2F)CC1` gave a melting point of 138 °C. Next, `N#CC1CN1C(=O)c1ccc(Cl)nn1` (configuration not stated): 109 to 115 °C. Regarding `CN(Cc1coc(C=Cc2ccc(C(F)(F)F)cc2)n1)c1ccc(OCCCn2ccnn2)cc1`, the melting point fell in the range of 137 to 138 °C. For the compound `COc1nc(C)cnc1NS(=O)(=O)c1cccnc1-c1ccc(NC(C)C)cc1`, the melting point was in the range of 105 to 107 °C.

With `COc1nc(C)cnc1NS(=O)(=O)c1cccnc1-c1ccc(CCC(=O)O)cc1`, the melting point is 166 to 168 °C. For `O=C1NC(=O)c2c1cc1ccc3c(c1c2-c1ccc(F)cc1)OCO3`, the melting point fell in the range of 269 to 271 °C. The same measure for `CC(=O)OCCCc1cccc(-c2nc(=O)c3ccccc3s2)n1`: 141 to 142 °C; for `O=C(O)c1cc(NCc2ccc(F)cc2)ccc1O`: above 210 °C; for `CCOC(=O)c1cnn2c1c(OCC)nc1c(C)nn(C)c12`: 116 to 118 °C. `Nc1ccc(F)c2c1C(=O)c1ccccc1-2` came in with a melting point of 205 to 206 °C.

`Oc1cc(C(O)C2CCCCC2)c2ccccc2n1` (configuration not stated) showed a melting point above 250 °C.

Take `CCOC(=O)CC(=O)NNc1ncc(-c2ccccc2)nc1CC(C)C`: the melting point is 116 to 118 °C. Take `Nc1ccc(C(=O)N2Cc3ccnn3Cc3ccccc32)c(Cl)c1`: the melting point lay within 98 to 117 °C. Next, `O=C1CCC(N2Cc3cc(CNC(=O)Nc4ccccc4)ccc3C2=O)C(=O)N1` (configuration not stated): 243 to 245 °C.
